Data taken from patent US20250171437A1 (Agios Pharmaceuticals,Inc., priority 2022, published 2025).

Biological target: T1, human PAH with the R408W mutation (A375 R408W cells) (Homo sapiens, UniProt P00439, R408W)
T1 construct: expressed in transfected cells
T1 sequence (P00439 1-452 R408W): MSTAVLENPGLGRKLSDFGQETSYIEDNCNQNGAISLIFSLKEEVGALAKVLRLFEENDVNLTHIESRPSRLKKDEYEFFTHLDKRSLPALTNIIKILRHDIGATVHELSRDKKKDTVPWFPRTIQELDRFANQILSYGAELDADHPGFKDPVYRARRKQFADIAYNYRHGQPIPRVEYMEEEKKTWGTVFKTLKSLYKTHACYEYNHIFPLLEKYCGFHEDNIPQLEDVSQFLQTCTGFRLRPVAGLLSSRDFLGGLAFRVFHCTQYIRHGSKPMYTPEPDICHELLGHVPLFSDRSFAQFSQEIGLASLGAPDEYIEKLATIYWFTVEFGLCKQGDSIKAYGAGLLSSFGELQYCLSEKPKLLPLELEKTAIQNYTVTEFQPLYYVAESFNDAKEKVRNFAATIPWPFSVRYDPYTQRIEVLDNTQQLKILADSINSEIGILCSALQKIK
Test: Cell Based Phenylalanine Flux Assay
Settings: 24 hrs with compound, then 20 μM sepiapterin and 800 μM 13C9,15N-Phenylalanine for 4 hours, 13C-Tyrosine by LC-MS, average where tested multiple times
Method in brief: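 LC-MS quantitation of 13C-tyrosine in media gave AC50 values. Stable A375 R408W PAH cells were preincubated 24 h with compound, then fed 800 μM labelled Phe plus 20 μM sepiapterin for 4 h. Dose curves were 10-point, tested in duplicate, averaged over repeat runs.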

[1] = A375 cells expressing R408W PAH

| Compound | AC50 (A375 R408W cells) | AC50 [1] |
| --- | --- | --- |
| Cn1nc(C(F)F)nc1C(=O)N1CCc2[nH]cnc2[C@H]1c1nc2cccc(F)c2o1 [Example 285, (S)-(3-(difluoromethyl)-1-methyl-1H-1,2,4-triazol-5-yl)(4-(7-fluorobenzo[d]oxazol-2-yl)-6,7-dihydro-1H-imidazo[4,5-c]pyridin-5(4H)-yl)methanone] | 0.5 to 1 µM |  |
| Cc1ccc2nc([C@H]3c4nc[nH]c4CCN3C(=O)c3ccnn3C(F)F)oc2c1 [Example 318, (R)-(1-(difluoromethyl)-1H-pyrazol-5-yl)(4-(6-methylbenzo[d]oxazol-2-yl)-6,7-dihydro-1H-imidazo[4,5-c]pyridin-5(4H)-yl)methanone] | 0.5 to 1 µM |  |
| O=C(c1ocnc1C(F)F)N1CCc2[nH]cnc2[C@H]1c1nc2cc(F)ccc2o1 [Example 51, (S)-(4-(difluoromethyl)oxazol-5-yl)(4-(5-fluorobenzo[d]oxazol-2-yl)-6,7-dihydro-1H-imidazo[4,5-c]pyridin-5(4H)-yl)methanone] | ≤ 0.5 µM |  |
| O=C(CC1(O)CCC1)N1CCc2[nH]cnc2[C@@H]1c1nc2cc(F)ccc2o1 [Example 56, (R)-1-(4-(5-fluorobenzo[d]oxazol-2-yl)-6,7-dihydro-1H-imidazo[4,5-c]pyridin-5(4H)-yl)-2-(1-hydroxycyclobutyl)ethanone] | 1 to 5 µM |  |
| Cn1cnnc1C(=O)N1CCc2[nH]cnc2C1c1nc2c(F)cccc2o1 (stereo not shown) |  | 1 to 5 µM |
| O=C(CC1CC(F)C1)N1CCc2[nH]cnc2[C@@H]1c1nc2cc(F)ccc2o1 (stereo partly drawn) [Example 60, (R)-1-(4-(5-fluorobenzo[d]oxazol-2-yl)-6,7-dihydro-1H-imidazo[4,5-c]pyridin-5(4H)-yl)-2-(3-fluorocyclobutyl)ethanone] | 1 to 5 µM |  |
| Cc1nc(C(C)(C)O)oc1C(=O)N1CCc2[nH]cnc2C1c1nc2ccc(F)cc2o1 (stereo not shown) |  | 1 to 5 µM |
| COc1cccc2nc([C@H]3c4nc[nH]c4CCN3C(=O)c3cc(C)nn3C)oc12 [Example 822, (R)-(1,3-dimethyl-1H-pyrazol-5-yl)(4-(7-methoxybenzo[d]oxazol-2-yl)-6,7-dihydro-1H-imidazo[4,5-c]pyridin-5(4H)-yl)methanone] | 1 to 5 µM |  |
| COCCOc1ccc2c(C(=O)N3CCc4[nH]cnc4C3c3nc4cc(F)ccc4o3)cnn2c1 (stereo not shown) |  | ≥ 5 µM |
| CC(C)(O)c1nc(C(F)F)c(C(=O)N2CCc3[nH]cnc3[C@H]2c2nc3cccc(C(F)(F)F)c3o2)o1 [Example 453, (S)-(4-(difluoromethyl)-2-(2-hydroxypropan-2-yl)oxazol-5-yl)(4-(7-(trifluoromethyl)benzo[d]oxazol-2-yl)-6,7-dihydro-1H-imidazo[4,5-c]pyridin-5(4H)-yl)methanone] | ≤ 0.5 µM |  |
| Cn1cc(-c2nnc(C(=O)N3CCc4[nH]cnc4[C@@H]3c3nc4ccc(F)c(F)c4o3)o2)cn1 [Example 516, (R)-(4-(6,7-difluorobenzo[d]oxazol-2-yl)-6,7-dihydro-1H-imidazo[4,5-c]pyridin-5(4H)-yl)(5-(1-methyl-1H-pyrazol-4-yl)-1,3,4-oxadiazol-2-yl)methanone] | 1 to 5 µM |  |
| O=C(CCc1nccs1)N1CCc2[nH]cnc2[C@@H]1c1nc2c(F)cccc2o1 [Example 398, (R)-1-(4-(4-fluorobenzo[d]oxazol-2-yl)-6,7-dihydro-1H-imidazo[4,5-c]pyridin-5(4H)-yl)-3-(thiazol-2-yl)propan-1-one] | ≥ 5 µM |  |
| Cc1cccc2nc([C@H]3c4nc[nH]c4CCN3C(=O)c3nnc(-c4ccccn4)o3)oc12 [Example 568, (R)-(4-(7-methylbenzo[d]oxazol-2-yl)-6,7-dihydro-1H-imidazo[4,5-c]pyridin-5(4H)-yl)(5-(pyridin-2-yl)-1,3,4-oxadiazol-2-yl)methanone] | 1 to 5 µM |  |
| Cn1nc(C(F)(F)F)nc1C(=O)N1CCc2[nH]cnc2C1c1nc2c(F)cccc2o1 (stereo not shown) |  | 1 to 5 µM |
| Nc1cc(C(=O)N2CCc3[nH]cnc3C2c2nc3cc(F)ccc3o2)n(C(F)F)n1 (stereo not shown) |  | ≥ 5 µM |
| Cc1nc(-c2cnn(C)c2)oc1C(=O)N1CCc2[nH]cnc2C1c1nc2cc(F)ccc2o1 (stereo not shown) |  | 1 to 5 µM |
| Cc1cccc2nc([C@H]3c4nc[nH]c4CCN3C(=O)c3nnc(-c4ccn(C(F)F)n4)o3)oc12 [Example 859, (R)-(5-(1-(difluoromethyl)-1H-pyrazol-3-yl)-1,3,4-oxadiazol-2-yl)(4-(7-methylbenzo[d]oxazol-2-yl)-6,7-dihydro-1H-imidazo[4,5-c]pyridin-5(4H)-yl)methanone] | 1 to 5 µM |  |
| CNc1ccc2c(C(=O)N3CCc4[nH]cnc4C3c3nc4cc(F)ccc4o3)cnn2c1 (stereo not shown) |  | 1 to 5 µM |
| O=C(CCc1nccs1)N1CCc2[nH]cnc2C1c1nc2cc(F)ccc2o1 (stereo not shown) |  | 1 to 5 µM |

| Compound | AC50 (A375 R408W cells) | AC50 [1] |
| --- | --- | --- |
| O=C(c1nnc(-c2cc(C(F)(F)F)ccn2)o1)N1CCc2[nH]cnc2[C@H]1c1nc2cc(F)ccc2o1 [Example 122, [(4S)-4-(5-fluoro-1,3-benzoxazol-2-yl)-1,4,6,7-tetrahydroimidazo[4,5-c]pyridin-5-yl]-[5-[4-(trifluoromethyl)-2-pyridyl]-1,3,4-oxadiazol-2-yl]methanone] | ≤ 0.5 µM |  |
| O=C(c1nncn1C1CC1)N1CCc2[nH]cnc2C1c1nc2cc(F)ccc2o1 (stereo not shown) |  | 1 to 5 µM |
| Cc1ccc2oc(C3c4nc[nH]c4CCN3C(=O)c3nnc(C(C)(C)O)o3)nc2c1 (stereo not shown) |  | 1 to 5 µM |
| N#Cc1ccc2c(C(=O)N3CCc4[nH]cnc4C3c3nc4cc(F)ccc4o3)cnn2c1 (stereo not shown) |  | 1 to 5 µM |
| Cn1cncc1-c1nnc(C(=O)N2CCc3[nH]cnc3C2c2nc3cc(F)ccc3o2)o1 (stereo not shown) |  | ≥ 5 µM |
| Cn1nc(C(F)F)nc1C(=O)N1CCc2[nH]cnc2C1c1nc2ccc(F)c(F)c2o1 (stereo not shown) |  | 1 to 5 µM |
| O=C(c1cnn2cc(-c3ccccn3)ccc12)N1CCc2[nH]cnc2[C@H]1c1nc2cccc(F)c2o1 [Example 451, (S)-(4-(7-fluorobenzo[d]oxazol-2-yl)-6,7-dihydro-1H-imidazo[4,5-c]pyridin-5(4H)-yl)(6-(pyridin-2-yl)pyrazolo[1,5-a]pyridin-3-yl)methanone] | ≤ 0.5 µM |  |
| O=C(c1ocnc1C(F)F)N1CCc2[nH]cnc2[C@@H]1c1nc2cc(F)cc(F)c2o1 [Example 310, (R)-(4-(5,7-difluorobenzo[d]oxazol-2-yl)-6,7-dihydro-1H-imidazo[4,5-c]pyridin-5(4H)-yl)(4-(difluoromethyl)oxazol-5-yl)methanone] | 0.5 to 1 µM |  |
| Cc1ccc2oc([C@@H]3c4nc[nH]c4CCN3C(=O)c3nnc(-c4ccc(F)cn4)o3)nc2c1 [Example 99, (S)-(5-(5-fluoropyridin-2-yl)-1,3,4-oxadiazol-2-yl)(4-(5-methylbenzo[d]oxazol-2-yl)-6,7-dihydro-1H-imidazo[4,5-c]pyridin-5(4H)-yl)methanone] | 0.5 to 1 µM |  |
| CC(C)(O)C1CCN(c2ccc3c(C(=O)N4CCc5[nH]cnc5[C@H]4c4nc5cccc(F)c5o4)cnn3c2)CC1 [Example 368, (S)-(4-(7-fluorobenzo[d]oxazol-2-yl)-6,7-dihydro-1H-imidazo[4,5-c]pyridin-5(4H)-yl)(6-(4-(2-hydroxypropan-2-yl)piperidin-1-yl)pyrazolo[1,5-a]pyridin-3-yl)methanone] | 0.5 to 1 µM |  |
| CC(C)(O)c1cc(C(=O)N2CCc3[nH]cnc3C2c2nc3cc(F)ccc3o2)no1 (stereo not shown) |  | ≥ 5 µM |
| CC(C)(O)c1cc(C(=O)N2CCc3[nH]cnc3C2c2nc3ccc(F)cc3o2)on1 (stereo not shown) |  | 1 to 5 µM |
| O=C(c1nnc(-c2cnn(C(F)F)c2)o1)N1CCc2[nH]cnc2C1c1nc2cccc(C(F)(F)F)c2o1 (stereo not shown) |  | 1 to 5 µM |
| CN(C)Cc1cn2ncc(C(=O)N3CCc4[nH]cnc4[C@H]3c3nc4cc(F)ccc4o3)c2cc1Cl [Example 203, (S)-(5-chloro-6-((dimethylamino)methyl)pyrazolo[1,5-a]pyridin-3-yl)(4-(5-fluorobenzo[d]oxazol-2-yl)-6,7-dihydro-1H-imidazo[4,5-c]pyridin-5(4H)-yl)methanonee] | 0.5 to 1 µM |  |
| [2H]C([2H])([2H])OCc1nc(C(F)F)c(C(=O)N2CCc3[nH]cnc3[C@H]2c2nc3cc(F)ccc3o2)o1 [Example 155, (S)-(4-(difluoromethyl)-2-((methoxy-d3)methyl)oxazol-5-yl)(4-(5-fluorobenzo[d]oxazol-2-yl)-1,4,6,7-tetrahydro-5H-imidazo[4,5-c]pyridin-5-yl)methanone] | ≤ 0.5 µM |  |
| Cn1ccc(-c2nnc(C(=O)N3CCc4[nH]cnc4[C@H]3c3nc4c(F)cccc4o3)o2)n1 [Example 379, (S)-(4-(4-fluorobenzo[d]oxazol-2-yl)-1,4,6,7-tetrahydro-5H-imidazo[4,5-c]pyridin-5-yl)(5-(1-methyl-1H-pyrazol-3-yl)-1,3,4-oxadiazol-2-yl)methanone] | ≤ 0.5 µM |  |
| CCn1cnnc1C(=O)N1CCc2[nH]cnc2[C@H]1c1nc2cc(F)ccc2o1 [Example 885, (S)-(4-ethyl-4H-1,2,4-triazol-3-yl)(4-(5-fluorobenzo[d]oxazol-2-yl)-6,7-dihydro-1H-imidazo[4,5-c]pyridin-5(4H)-yl)methanone] | 1 to 5 µM |  |
| COc1ccc2oc([C@H]3c4nc[nH]c4CCN3C(=O)c3nnc(-c4cnn(C)c4)o3)nc2c1 [Example 554, (R)-(4-(5-methoxybenzo[d]oxazol-2-yl)-6,7-dihydro-1H-imidazo[4,5-c]pyridin-5(4H)-yl)(5-(1-methyl-1H-pyrazol-4-yl)-1,3,4-oxadiazol-2-yl)methanone] | 1 to 5 µM |  |
